Reference: PubChem BioAssay AID651630 (Sanford-Burnham Center for Chemical Genomics, 2012)
The source made the active and inactive calls.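 How the source made its calls: active means lipid-stain IC50 at or below a set limit, with nuclear-stain toxicity IC50 at least five times higher; inactive means the rest.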

How the values were obtained:
TAG = experiment: triacylglycerol accumulation inhibitor potency, dose response, cell-based, panel, Nile Red and DAPI fluorescence, H9c2 (AID 651630); settings: H9c2 cells, Nile Red TAG fluorescence, oleic acid;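 further: cells exposed to compound overnight before fixation and staining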
DAPI = experiment: as above; settings: H9c2 cells, DAPI nuclear fluorescence (cytotoxicity counter-readout), oleic acid

Row | SMILES | IC50 (TAG; run 1) [µM] | IC50 (TAG; run 2) [µM] | IC50 cytotoxicity (DAPI nuclear signal decrease) (DAPI; mean of runs) | IC50 cytotoxicity (DAPI nuclear signal decrease) (DAPI; run 1) [µM] | IC50 cytotoxicity (DAPI nuclear signal decrease) (DAPI; run 2) [µM] | IC50 (TAG; mean of runs)
1 | Cc1ccc(NC(=O)CSc2nnc(C)c(=O)n2N)cc1Cl | 24 | > 25 | > 25 µM (inactive) | > 25 | > 25 | –
2 | CCN(CC)CCn1c(SCC(=O)Nc2cccc(OC)c2)nc2c(sc3ccccc32)c1=O | 16.7 | 10.6 | > 25 µM (inactive) | > 25 | > 25 | 13.7 µM
3 | COc1ccc(-c2cc(NC=O)c3ncc(-c4ccc(OC)c(OC)c4)n3c2)cc1 | 12.5 | 13.9 | – | > 25 | 5.58 | 13.2 µM
4 | COc1cc(OC)c2c(-c3ccccc3)cc(=O)oc2c1C(CCN1CCCCC1)c1ccc2c(c1)OCO2 (stereo unspecified) | 20.9 | 24.9 | > 25 µM (inactive) | > 25 | > 25 | 22.9 µM (inactive)
5 | CN(C)CCNC(=O)c1cccc(-c2cnc3c(NC=O)cc(-c4cccc(C(F)(F)F)c4)cn23)c1 | > 25 | > 25 | > 25 µM (inactive) | > 25 | > 25 | > 25 µM (inactive)
6 | CCCCN(C)C(=O)c1ccc(Nc2nc(C(N)Cc3ccc(C(F)(F)F)cc3)cs2)nc1 (stereo unspecified) | > 25 | > 25 | > 25 µM (inactive) | > 25 | > 25 | > 25 µM (inactive)
7 | COc1cccc(N=Nc2c(O)[nH]c(=S)[nH]c2=O)c1 | > 25 | > 25 | – | 6.31 | > 25 | > 25 µM (inactive)
8 | COc1cc(CNC(=O)Nc2nc(C(N)Cc3ccc(C(F)(F)F)cc3)cs2)cc(OC)c1OC (stereo unspecified) | 8.1 | 8.66 | > 25 µM (inactive) | > 25 | > 25 | 8.38 µM
9 | COc1cccc(/C=C/C(=C2\C(=O)N(c3ccccc3)N=C2C)c2ccc(Br)cc2)c1OC | 5.94 | 4.43 | > 25 µM (inactive) | > 25 | > 25 | 5.18 µM
10 | CCc1ccc(/C=N/NC(=O)c2cc(C3CC3)nc3ccc(Br)cc23)s1 | > 25 | > 25 | > 25 µM (inactive) | > 25 | > 25 | > 25 µM (inactive)
11 | Cc1ccc2[nH]c(-c3ccccc3)cc(=O)c2c1 | > 25 | > 25 | > 25 µM (inactive) | > 25 | > 25 | > 25 µM (inactive)
12 | O=C(NCc1nnnn1-c1ccc(F)cc1)c1ccc([N+](=O)[O-])o1 | 21.7 | 16 | 11.8 µM (inactive) | 11.8 | 11.9 | 18.9 µM (inactive)
13 | CCN(CC)c1ccc(/C=C2\CCC(/C=C(/C#N)C(=O)Nc3ccccc3F)=C2N2CCOCC2)cc1 | < 0.78 | < 0.78 | – | > 25 | > 25 | < 0.78 µM
14 | COc1cc(C#Cc2c(-c3cncn3C)n(C)c3ccc(-c4cnc(N5CCOCC5)nc4)cc23)cc(OC)c1 | 14.3 | 7.65 | > 25 µM (inactive) | > 25 | > 25 | 11 µM
15 | COCCNc1nc(NCc2ccc(NC(C)=O)cc2)c2sc(-c3ccccc3)cc2n1 | > 25 | > 25 | – | 19.1 | > 25 | > 25 µM (inactive)
16 | COc1ccc2nc3cc([N+](=O)[O-])ccc3c(NNc3ccc([N+](=O)[O-])cc3)c2c1 | 10.4 | 1.44 | > 25 µM (inactive) | > 25 | > 25 | 5.93 µM
17 | O=C(Nc1ccc(-c2csc(Nc3cccc(C(F)(F)F)c3)n2)cc1)c1ccccc1 | 22.3 | > 25 | > 25 µM (inactive) | > 25 | > 25 | –
